“Also recorded” adds a separate entry of the source.
Key:
[1] = test system: murine DSS model of ulcerative colitis; assay: Murine DSS model of ulcerative colitis (acute); type: in vivo, mouse; conditions: for efficacy in the murine DSS model of colitis / DSS-elicited body weight loss / disease activity index (DAI) / colon length: 20 mg/kg oral gavage on days 4, 6, 8, 10; for efficacy in the murine DSS model of colitis: 2.5% DSS, C57BL/6 mice; for DSS-elicited body weight loss: FIG. 6E; for disease activity index (DAI): FIG. 6F; for colon length: day 12, FIG. 6B, 6C
Description: FIGS. 6A-F illustrate efficacy of ARTX-339, ARTX-405A, ARTX-413, and ARTX-425P1 in the murine DSS model of ulcerative colitis. A. C57BL/6 mice (7-8-week old mice) were supplied with 2.5% DSS in their drinking water for 7 days. Starting on day 4 post DSS treatment, mice were dosed once every other day with 100 μL vehicle (0.25% sodium carboxymethylcellulose used in the formulation of ARTX compounds), or 100 μL ARTX-339, ARTX-405A, ARTX-413, or ARTX-425P1 at 20 mg/kg body weight by oral gavage on days 4, 6, 8, and 10. Mice were euthanized on day 12. FITC dextran was administered to the mice via oral gavage 4 hours preceding euthanization. Following euthanization, colons were dissected, and their length measured. B. Measurements of colon length. C. Photographs of dissected colons. D. Measurement of FITC-dextran in serum following euthanization. […] Higher levels of serum FITC-dextran following DSS-treatment is an indication of a loss of barrier function. E. Body weight was measured every other day starting at day 0 with the initiation of DSS treatment. F. Disease activity index (DAI) scores were assigned every other day. The higher the DAI score, the worse the symptoms. **** indicates p<0.0001; *** indicates p<0.001; ** indicates=p<0.01.
A murine dextran sodium sulfate (DSS)-elicited model of ulcerative colitis was utilized to measure the efficacy of compounds in vivo. Oral administration of DSS in drinking water, a chemical colitogen with anticoagulant properties, leads to disruption of gut epithelium causing enhanced gut permeability, inflammation, and severe damage of gut barrier function^71,72. The rationale for using the murine DSS^71,72 model of UC is that it is a well-established gut epithelial barrier disrupting model that can be used to model both acute and chronic UC^70,71.
Starting on day 4 post DSS treatment, mice were dosed once every other day with 100 μL vehicle (0.25% sodium carboxymethylcellulose used in the formulation of ARTX compounds), or 100 μL ARTX-339, ARTX-405A, ARTX-413, or ARTX-425P1 at 20 mg/kg body weight by oral gavage on days 4, 6, 8, and 10. Mice were euthanized on day 12. FITC dextran was administered to the mice via oral gavage 4 hours prior to euthanization. Following euthanization, colons were dissected, and their lengths were measured.

[2] = test system: TNBS-induced colitis in mice; assay: Murine TNBS model of ulcerative colitis; type: in vivo; conditions: TNBS mouse model of UC
Description: FIGS. 2A-D illustrates that UAS03 is efficacious in a mouse 2,4,6-trinitrobenzenesulfonic acid (TNBS) model when administered either pre- or post-TNBS treatment. Pre-treatment: Mice (n=10 per group) were given UAS03 orally QD (20 mg/kg) for 7 days followed by administration of TNBS. Mice were euthanized 72 h post-TNBS treatment. Post-treatment: Mice (n=10 per group) received UAS03 QD (20 mg/kg) 24, 48, and 72 h post-TNBS. A) Ratio of colon weight/length. B) Intestinal permeability evaluated using a FITC-dextran leakage assay. C) Serum levels of TNF-α measured using a standard ELISA method. D) Claudin-4 (Cldn4) expression in mouse colons. […] Error bars, ±SEM; ***p<0.001.
Intra-rectal administration of 2,4,6-Trinitrobenzenesulfonic acid (TNBS) induces CD4^+-dependent colitis in mice resulting in increased intestinal permeability, shortening of colons, and increased inflammation^70. […] The symptoms that were reversed included body weight loss, colon weight/length ratio (FIG. 2A), increased gut permeability (FIG. 2B), and enhanced levels of inflammatory cytokines (FIG. 2C)^44. […] The beneficial effects of UAS03 in TNBS-treated mice were not observed in either AhR^−/− or Nrf2^−/− mutant mice^44. […] UAS03 was also efficacious in both acute and chronic dextran sodium sulfate (DSS)-induced^71,72 colitis models^44. […]

[3] = test system: Salmonella strains; assay: Ames test; conditions: one of the Salmonella strains; with / without liver S9 enzymes
Description: (§1) Step 4: Toxicity studies, including hERG and Ames tests, are conducted on compounds.
(§2) However, potential genotoxicity of ARTX-86 is consistent with its planar structure, which may allow ARTX-86 to intercalate into the DNA double helix. It's possible that reactive metabolites of ARTX-86 are being formed by the S9 fraction and the ability of ARTX-86 to intercalate into the DNA helix delivers the radicals or other toxic metabolites directly to the DNA.

[4] = Preliminary PK studies in rats; conditions: rat, in vivo
Description: as §2

[5] = test system: Cyp1A1; assay: Activation of Cyp1A1 expression; type: cell-based
Description: Step 2: Selected compounds from step 1 were tested at a range of concentrations for activation of Cyp1A1 mRNA levels using qRT-PCR, for activation of Cyp1A1 enzymatic activity (ethoxyresorufin-O-deethylase (EROD) assay), or activation of an AhR-reporter gene driven by a so-called dioxin-response element (DRE) using commercially available kits. Activation of Cyp1A1 mRNA levels, activation of Cyp1A1 enzymatic activity, or activation of an AhR reporter gene construct driven by a DRE is generally considered to be indicative of a compound's ability to function as an AhR ligand. When activated by a ligand, cytosolic AhR translocates to the nucleus and dimerizes with the AhR nuclear translocator protein ARNT. The AhR/ARNT complex then binds to DREs to activate gene transcription.

[6] = biological target: hERG (Homo sapiens, UniProt Q12809); assay: hERG assay; conditions: up to 60 times the efficacious dose
hERG, sequence (Q12809 whole entry): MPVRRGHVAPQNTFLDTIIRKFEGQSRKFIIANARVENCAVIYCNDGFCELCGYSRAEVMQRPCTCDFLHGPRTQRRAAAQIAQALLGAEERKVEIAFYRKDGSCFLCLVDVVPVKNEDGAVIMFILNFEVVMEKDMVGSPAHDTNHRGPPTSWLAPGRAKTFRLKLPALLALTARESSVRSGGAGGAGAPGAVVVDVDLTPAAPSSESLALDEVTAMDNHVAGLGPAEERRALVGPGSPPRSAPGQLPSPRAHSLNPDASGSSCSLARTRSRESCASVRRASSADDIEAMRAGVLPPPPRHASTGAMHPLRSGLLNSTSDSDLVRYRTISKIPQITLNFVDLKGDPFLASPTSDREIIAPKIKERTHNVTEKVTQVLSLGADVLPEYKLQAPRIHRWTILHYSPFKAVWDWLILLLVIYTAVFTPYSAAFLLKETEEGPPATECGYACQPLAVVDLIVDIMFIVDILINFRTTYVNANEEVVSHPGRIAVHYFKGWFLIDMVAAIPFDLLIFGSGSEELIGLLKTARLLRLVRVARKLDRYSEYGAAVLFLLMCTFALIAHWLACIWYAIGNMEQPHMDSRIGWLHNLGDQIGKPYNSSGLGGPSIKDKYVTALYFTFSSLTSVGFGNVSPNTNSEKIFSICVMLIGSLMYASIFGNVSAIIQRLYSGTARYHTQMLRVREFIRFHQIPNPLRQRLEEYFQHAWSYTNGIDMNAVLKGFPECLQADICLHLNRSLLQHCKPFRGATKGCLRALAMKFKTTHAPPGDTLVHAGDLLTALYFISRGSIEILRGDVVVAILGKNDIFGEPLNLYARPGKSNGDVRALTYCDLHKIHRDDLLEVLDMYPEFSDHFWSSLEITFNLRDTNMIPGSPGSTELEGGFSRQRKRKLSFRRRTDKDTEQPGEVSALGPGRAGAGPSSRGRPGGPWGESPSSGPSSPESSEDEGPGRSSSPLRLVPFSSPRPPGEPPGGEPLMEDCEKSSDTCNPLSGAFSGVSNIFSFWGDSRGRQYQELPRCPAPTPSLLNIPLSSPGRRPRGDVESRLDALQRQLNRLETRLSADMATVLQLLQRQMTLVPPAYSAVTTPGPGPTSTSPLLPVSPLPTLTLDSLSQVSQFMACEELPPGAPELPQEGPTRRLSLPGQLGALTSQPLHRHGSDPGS
Description: as §1

[7] = Acute toxicity in rats; conditions: rat, in vivo
Description: as §2

[8] = test system: DSS-induced colitis in mice; conditions: cited from earlier work
[9] = test system: TNBS-induced colitis in mice; conditions: cited from earlier work
[10] = test system: LPS-elicited mouse peritonitis model; conditions: cited from earlier work
[11] = test system: bone marrow derived macrophages; conditions: cited from earlier work
[12] = test system: cytochrome P450 1A1 (Cyp1A1) and heme oxygenase 1 (HMOX1 or HO1) genes; conditions: cited from earlier work
[13] = pH 2.0 in the presence of gastric enzymes; cited from earlier work
[14] = test system: HT-29 and Caco-2 intestinal epithelial cell lines; conditions: RNA-seq and qRT-PCR; cited from earlier work
[15] = extensively tested; cited from earlier work
[16] = biological target: T1, AhR (Homo sapiens, UniProt P35869); conditions: published data; cited from earlier work
T1 sequence (P35869 11-848): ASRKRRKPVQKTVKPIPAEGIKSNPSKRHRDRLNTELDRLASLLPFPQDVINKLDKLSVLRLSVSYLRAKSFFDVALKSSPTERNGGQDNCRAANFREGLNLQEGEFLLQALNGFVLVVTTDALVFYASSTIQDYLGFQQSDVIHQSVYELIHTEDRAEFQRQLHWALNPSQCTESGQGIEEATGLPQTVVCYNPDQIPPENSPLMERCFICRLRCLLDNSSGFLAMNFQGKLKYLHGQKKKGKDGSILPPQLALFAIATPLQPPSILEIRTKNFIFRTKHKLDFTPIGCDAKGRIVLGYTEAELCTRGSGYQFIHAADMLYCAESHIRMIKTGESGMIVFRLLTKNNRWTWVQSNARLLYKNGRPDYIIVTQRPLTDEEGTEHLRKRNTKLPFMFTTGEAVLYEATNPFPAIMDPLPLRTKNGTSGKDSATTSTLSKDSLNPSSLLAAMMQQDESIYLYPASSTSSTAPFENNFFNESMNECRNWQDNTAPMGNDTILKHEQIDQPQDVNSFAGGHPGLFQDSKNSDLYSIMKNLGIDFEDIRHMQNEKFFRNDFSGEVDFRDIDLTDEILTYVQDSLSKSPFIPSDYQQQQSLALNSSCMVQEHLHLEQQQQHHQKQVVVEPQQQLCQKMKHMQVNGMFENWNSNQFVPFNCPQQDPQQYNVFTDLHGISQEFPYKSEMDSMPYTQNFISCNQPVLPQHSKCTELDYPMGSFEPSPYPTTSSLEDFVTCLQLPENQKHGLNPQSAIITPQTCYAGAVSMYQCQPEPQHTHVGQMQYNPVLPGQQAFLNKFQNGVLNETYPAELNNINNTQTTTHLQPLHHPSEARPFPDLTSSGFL

## CC(C)[C@@H]1Oc2cc(O)ccc2-c2ccc(F)cc21 (single isomer, unassigned) [ARTX-425P1]
[1]
  efficacy in the murine DSS model of colitis: exhibited efficacy
  DSS-elicited body weight loss: highly statistically significant
  disease activity index (DAI): highly statistically significant
  colon length: a statistically significant increase in colon length was not observed

## Oc1ccc2c(c1)OCc1cc(F)ccc1-2 [ARTX-86]
[2]
  efficacy compared with UAS03: equally efficacious as UAS03
[3]
  Ames test result: tested positive in the presence but not the absence of liver S9 enzymes
[1]; DSS mouse model of UC
  efficacy compared with UAS03: equally efficacious as UAS03
[4]; 20 mg/kg
  half-life: 2.22 ± 0.5 h
[4]; dosed at 20 mg/kg
  Cmax: 92 ± 15 ng/mL
[5]
  activating the expression of Cyp1A1, compared with UroA and UAS03: comparably active as UroA and UAS03
[6]
  cardiotoxicity in hERG assay: not cardiotoxic
[7]
  NOAEL: 1000 mg/kg/day
[7]; acute toxicity
  MTD: > 2000 mg/kg

## Oc1cc(O)c2c(c1)C1(CCCC1)c1cc(F)ccc1-2 [ARTX-405A, 7′-fluorospiro[cyclopentane-1,9′-fluorene]-2′,4′-diol]
[1]
  efficacy in the murine DSS model of colitis: exhibited efficacy
  DSS-elicited body weight loss: highly effective
  disease activity index (DAI): highly effective
  colon length: highly effective

## Oc1ccc2c(c1)COc1cc(O)ccc1-2 [UAS03]
[8]; 4 cycles of 2% DSS, 90 day experiment, UAS03 QD 20 mg/kg
  protection in chronic DSS model: protected against DSS-induced chronic colitis
[8]; mouse, in vivo
  efficacy in acute and chronic DSS-induced colitis models: efficacious
[9]; TNBS model
  potency relative to UroA: about 10 fold
[9]; TNBS-treated AhR−/− or Nrf2−/− mice
  beneficial effects in AhR−/− or Nrf2−/− mutant mice: not observed
[9]; TNBS-treated mice, colons
  claudin 4 (Cldn4) expression / protein levels: induced the expression; also recorded: reversed a dramatic decrease
[9]; orally QD or BID for three days following TNBS, 20 mg/kg
  UC symptoms (body weight loss, colon weight/length ratio, gut permeability, inflammatory cytokines): dramatically reversed
[9]; pre-treated QD for 7 days at 20 mg/kg
  development of TNBS-elicited symptoms: blocked
[10]
  levels of LPS-induced TNF-α, IL-6, CXCL-1, and IL-1β: markedly decreased
[11]
  levels of LPS-induced TNF-α, IL-6, CXCL-1, and IL-1β: markedly decreased
[12]
  expression of Cyp1A1 and HO1 genes: activated
[13]
  time stable: at least 12 hours
[14]
  expression of tight junction proteins claudin 4, ZO-1, and occludin 1: upregulates

## O=c1oc2cc(O)ccc2c2ccc(O)cc12 [UroA, Urolithin A]
[15]
  genotoxicity: no indications of genotoxicity have been reported
[16]
  AhR ligand activity: AhR ligand that activates the AhR signaling pathway
[13]
  hydrolysis: rapidly hydrolyzed

Reference: patent US12202841B2, “Therapeutic agents for enhancing epithelial and/or endothelial barrier function” (ARTUS THERAPEUTICS, INC., priority 2022, dated 2025)
